Laboratory results published in patent US20130131161A1, “METHODS AND COMPOSITIONS FOR CARDIOVASCULAR DISEASES AND CONDITIONS” (priority 2009, published 2013).

Test system: Human umbilical vein endothelial cells (HUVECs)
Test: eNOS activity analysis: NO, ONOO− and NO/ONOO− release from HUVECs of 50 genotyped donors in response to LA-419 (Example 2)
Format: cell-based
Conditions: LA-419 5 μM
Experimental: Concurrent measurements of NO and ONOO^− were carried out with tandem electrochemical nanosensors combined into one working unit with a total diameter of 200-500 nm (FIG. 1). Their design was based on previously developed and well-characterized chemically modified carbon-fiber technology (Malinski and Taha, 1992; Lvovich and Scheeline, 1997). Each of the nanosensors was made by depositing a sensing material on the tip of a carbon fiber (length 4-5 μm, diameter 0.2-0.5 μm). The fibers were sealed with nonconductive epoxy and electrically connected to copper wires with conductive silver epoxy. A conductive film of polymeric nickel (II) tetrakis(3-methoxy-4-hydroxyphenyl)porphyrin for the NO-sensor and polymeric film of Mn (III) [2.2]paracyclophanylporphyrin was used for the ONOO^−-sensor.
A module of NO/ONOO^− nanosensors (diameter 1-2 μm) with a platinum wire (0.1 mm) counter electrode and saturated calomel reference electrode (SCE) were applied. Differential pulse voltammetry (DPV) and amperometry were performed with a computer-based Gamry VFP600 multichannel potentiostat. DPV was used to measure the basal NO and ONOO^− concentrations, and amperometry was used to measure changes in NO and ONOO^− concentrations from its basal level with time. The DPV current at the peak potential characteristic for NO oxidation (0.65 V) and ONOO^− reduction (−0.45 V) was directly proportional to the local concentrations of these compounds in the immediate vicinity of the sensor. Linear calibration curves (current vs. concentration) were constructed for each sensor from 10 nM to 3 μM before and after measurements with aliquots of NO and ONOO^− standard solutions, respectively. The detection limit of the sensors was 1.0 nM.
The quantification of each analyte (concentration in nM) was performed using a maximum current from amperograms and standard calibration curves. A reproducibility of measurements with nanosensors is relatively high (between 5-12%). […] The sensors were slowly raised 5±2 μm from the surface of a single endothelial cell. The eNOS agonist, calcium ionophore A23187 (CaI) as well as the different drugs were then added to the surrounding media at the cell surface with a nanoinjector that was also positioned by a computer controlled-micromanipulator.
This example describes the genotype-specific response of the three major eNOS variants to 1 μM and 5 μM concentrations of LA-419. The three major genetic polymorphisms studied were the Glu298Asp variant (E298D or 894G→T) in exon 7 of […], the −786T→C variant in the promoter region, and the intron 4 polymorphism (VNTR). All of these variants have possible effects on the cardiovascular system and endothelial dysfunction. For this study, human umbilical vein endothelial cells (HUVECs) from 50 donors between 18 and 32 years of age were used.
For the analysis several analysis techniques were employed. First, the effect of genotype on NO and ONOO^− release was explored within the different concentrations of LA-419 (control, 1 μM, 5 μM), calculated as the average peak release (nmols/L) of NO, ONOO^−, and NO/ONOO^−. The effect of genotype on the net increase in NO, ONOO^−, and NO/ONOO^− for LA-419 (1 μM and 5 μM) as compared to control was also measured. In addition, an analysis was done on the effect of genotype on the % change in NO, ONOO^−, and NO/ONOO^− production for LA-419 (1 μM and 5 μM), calculated as:
% Change=[(avg. LA-419−avg. control)/(avg. control)]*100
Finally, an evaluation was undertaken concerning the effect of genotype on the production of NO, ONOO^−, and NO/ONOO^− as the fold difference of control for LA-419 (1 μM and 5 μM), calculated as:
Fold Difference=(avg. LA-419)/(avg. control)
Within each calculation technique the results were compared for statistical significance using a non-parametric ANOVA Kruskal-Wallace test or a non-parametric Mann-Whitney U test. Statistical significance was set at a p-value <0.05 in a two-tailed distribution. […]

[1] = HUVECs Intron 4 variant b/a, a/a, c/c
[2] = HUVECs T-786C variant T/C & C/C

## CC(=O)SC1COC2C(O[N+](=O)[O-])COC12 (stereo not drawn) [LA-419, S-(6-Nitro-oxi-hexahydro-furo[3,2-b]furan-3-1-il)thioacetate]
HUVECs G894T variant G/G
  Peak release ONOO− (mean ± sd): 288.82 (78.22) nmols/L
HUVECs G894T variant G/T
  % Change Ratio, % Change NO/% Change ONOO− (mean ± sd): −0.88 (0.60)
  Net increase over control NO (mean ± sd): 45.87 (19.24) nmols/L
  Net increase over control NO/ONOO− (mean ± sd): −0.94 (0.88)
  Net increase over control ONOO− (mean ± sd): −65.80 (26.77) nmols/L
  Peak release NO (mean ± sd): 400.63 (80.27) nmols/L
  Peak release NO/ONOO− (mean ± sd): 1.44 (0.49)
  Peak release ONOO− (mean ± sd): 300.15 (75.86) nmols/L
HUVECs G894T variant G/T & T/T
  Net increase over control NO (mean ± sd): 45.12 (21.46) nmols/L
  Net increase over control NO/ONOO− (mean ± sd): −0.91 (0.90)
  Net increase over control ONOO− (mean ± sd): −69.51 (27.46) nmols/L
  Peak release NO (mean ± sd): 398.42 (88.37) nmols/L
  Peak release NO/ONOO− (mean ± sd): 1.39 (0.53)
  Peak release ONOO− (mean ± sd): 314.55 (84.72) nmols/L
HUVECs G894T variant T/T
  % Change Ratio, % Change NO/% Change ONOO− (mean ± sd): −0.80 (0.73)
  Net increase over control NO (mean ± sd): 42.40 (30.77) nmols/L
  Net increase over control NO/ONOO− (mean ± sd): −0.78 (1.05)
  Net increase over control ONOO− (mean ± sd): −82.87 (28.56) nmols/L
  Peak release NO (mean ± sd): 390.47 (124.39) nmols/L
  Peak release NO/ONOO− (mean ± sd): 1.21 (0.68)
  Peak release ONOO− (mean ± sd): 366.40 (103.55) nmols/L
HUVECs Intron 4 variant a/a
  Net increase over control NO (mean ± sd): 52.00 (16.74) nmols/L
  Net increase over control NO/ONOO− (mean ± sd): 0.41 (0.19)
  Net increase over control ONOO− (mean ± sd): −63.78 (14.11) nmols/L
  Peak release NO (mean ± sd): 438.33 (79.68) nmols/L
  Peak release NO/ONOO− (mean ± sd): 1.48 (0.64)
  Peak release ONOO− (mean ± sd): 331.22 (117.30) nmols/L
HUVECs Intron 4 variant b/a
  Net increase over control NO (mean ± sd): 54.53 (23.50) nmols/L
  Net increase over control NO/ONOO− (mean ± sd): 0.45 (0.22)
  Net increase over control ONOO− (mean ± sd): −72.30 (25.81) nmols/L
  Peak release NO (mean ± sd): 375.20 (81.45) nmols/L
  Peak release NO/ONOO− (mean ± sd): 1.42 (0.61)
  Peak release ONOO− (mean ± sd): 295.73 (85.11) nmols/L
[1]
  Net increase over control NO (mean ± sd): 47.30 (22.42) nmols/L
  Net increase over control NO/ONOO− (mean ± sd): 0.44 (0.20)
  Net increase over control ONOO− (mean ± sd): −72.31 (23.65) nmols/L
  Peak release NO (mean ± sd): 392.83 (80.05) nmols/L
  Peak release NO/ONOO− (mean ± sd): 1.43 (0.57)
  Peak release ONOO− (mean ± sd): 305.67 (86.01) nmols/L
HUVECs Intron 4 variant b/b
  Net increase over control NO (mean ± sd): 47.30 (22.42) nmols/L
  Net increase over control NO/ONOO− (mean ± sd): 0.43 (0.20)
  Net increase over control ONOO− (mean ± sd): −70.32 (30.56) nmols/L
  Peak release NO (mean ± sd): 400.83 (81.57) nmols/L
  Peak release NO/ONOO− (mean ± sd): 1.46 (0.51)
  Peak release ONOO− (mean ± sd): 298.99 (79.66) nmols/L
HUVECs Intron 4 variant c/c
  Net increase over control NO (mean ± sd): 64.00 (0) nmols/L
  Net increase over control NO/ONOO− (mean ± sd): 0.46 (0)
  Net increase over control ONOO− (mean ± sd): −98.00 (0) nmols/L
  Peak release NO (mean ± sd): 432.67 (0) nmols/L
  Peak release NO/ONOO− (mean ± sd): 1.32 (0)
  Peak release ONOO− (mean ± sd): 328.33 (0) nmols/L
HUVECs T-786C variant C/C
  % Change Ratio, % Change NO/% Change ONOO− (mean ± sd): −0.62 (0.39)
  Net increase over control NO (mean ± sd): 38.00 (17.39) nmols/L
  Net increase over control NO/ONOO− (mean ± sd): −0.52 (0.36)
  Net increase over control ONOO− (mean ± sd): −82.58 (26.16) nmols/L
  Peak release NO (mean ± sd): 370.17 (86.78) nmols/L
  Peak release NO/ONOO− (mean ± sd): 1.32 (0.71)
  Peak release ONOO− (mean ± sd): 322.33 (110.70) nmols/L
HUVECs T-786C variant T/C
  % Change Ratio, % Change NO/% Change ONOO− (mean ± sd): −0.81 (0.56)
  Net increase over control NO (mean ± sd): 47.26 (23.70) nmols/L
  Net increase over control NO/ONOO− (mean ± sd): −0.86 (0.80)
  Net increase over control ONOO− (mean ± sd): −65.86 (23.41) nmols/L
  Peak release NO (mean ± sd): 396.81 (95.72) nmols/L
  Peak release NO/ONOO− (mean ± sd): 1.41 (0.56)
  Peak release ONOO− (mean ± sd): 310.97 (82.59) nmols/L
[2]
  Net increase over control NO (mean ± sd): 45.89 (22.83) nmols/L
  Net increase over control NO/ONOO− (mean ± sd): −0.81 (0.76)
  Net increase over control ONOO− (mean ± sd): −68.33 (24.07) nmols/L
  Peak release NO (mean ± sd): 392.86 (93.35) nmols/L
  Peak release NO/ONOO− (mean ± sd): 1.39 (0.57)
  Peak release ONOO− (mean ± sd): 312.65 (84.87) nmols/L
HUVECs T-786C variant T/T
  % Change Ratio, % Change NO/% Change ONOO− (mean ± sd): −0.90 (0.47)
  Net increase over control NO (mean ± sd): 55.91 (19.06) nmols/L
  Net increase over control NO/ONOO− (mean ± sd): −0.95 (0.67)
  Net increase over control ONOO− (mean ± sd): −76.48 (33.23) nmols/L
  Peak release NO (mean ± sd): 405.83 (58.51) nmols/L
  Peak release NO/ONOO− (mean ± sd): 1.52 (0.45)
  Peak release ONOO− (mean ± sd): 286.47 (76.65) nmols/L
Table u1
  % increase in peak NO generation, range within genotype groups: 11.6 to 17.4%
Table u3
  increase in NO/OONO− ratio, range over all genotypes: 37-53%
All genotypes (Table b1)
  peak release of NO versus control: increase
Exon 7, p 0.10
  greater net increase in NO, major allele variant vs minor allele carriers: 22%
promoter, p 0.12
  greater net increase in NO, major allele variant vs minor allele carriers: 22%
